How the values were obtained:
[1] = In-vitro drug permeation study, human cadaver skin, Valia-Chien cell, HPLC; type: in vitro ADME; details: from 10 cm^2 TCDS patch of Example 1, steady state
Experimental: The samples taken from the receptor compartment of the diffusion cell were analyzed by high performance liquid chromatography.
The skin permeation flux of each drug was subsequently calculated from the steady state of the permeation profile.

Rabbit Skin = experiment: Residual drug assay of patches from dermal toxicity test (daily delivery rate into rabbit); details: for in vivo delivery rate compared with in vitro rate: rabbit vs in vitro; for Daily Delivery Rate: rabbit, N = 6, ± S.D.
Experimental: The test consists of an one-week primary skin irritation study on six rabbits followed by histopathological examination on each patch application. Both medicated and placebo patches of this TCDS formulation were tested on either intact or abraded skin. Based on the Draize Scale Scoring Method, the primary dermal irritation index (PDII) was given to each patch application site at 24 and 72 hours following the 7 days application period. The patches used in the primary skin irritation test were retrieved for residual drug assay to determine the amount of drugs delivered into the test animal.

[2] = Phase I residual drug assay of used patches (daily delivery rate); details: for relationship between daily delivery rate and dosage: 1, 2 or 3 × 10 cm^2 TCDS patches; for Daily Delivery Rate: ± S.D.
Source text: In this study, healthy female subjects of child-bearing age were randomly divided into 4 groups in a 4-way parallel study design (See Table 5). The study consists of three menstrual cycles which are sequentially arranged as pre-treatment, treatment and post-treatment cycles. During the pre-treatment cycle, the 48 recruited subjects were given placebo TCDS patches to study the wearability (including skin irritation and adhesion tests) while they were being screened against the inclusion/exclusion criteria specified in the clinical protocol. During the treatment cycle, each of the […] in Group A, B and C received weekly application of 1, 2 or 3 pieces of 10 cm^2 TCDS patches, respectively, while each subject in Group D received one oral contraceptive pill (each pill contains 150 μg of levonorgestrel and 35 μg of ethynyl estradiol) per day as reference.

[3] = Phase I serum levonorgestrel by radioimmunoassay; type: in vivo, human (fertile Chinese women); details: Groups B and C, three weeks of patch application
Experimental: Blood samples obtained from these three cycles of studies were assayed by radioimmunoassay (RIA) methods for their serum concentration of levonorgestrel, estradiol, progesterone, luteinizing hormone (LH) and follicle stimulating hormone (FSH). Ultrasonic measurement of follicle size and endometrium thickness measurement were also performed during the mid-treatment cycle. Bioavailability of levonorgestrel was assessed by the serum levonorgestrel profile of each subject group. Suppression of post-ovulatory progesterone peak and mid-cycle surges of LH and FSH provided hormonal indications of ovulation inhibition.

Row | SMILES | skin permeation flux / amount delivered [1] | in vivo delivery rate compared with in vitro rate (Rabbit Skin) | Daily Delivery Rate (Rabbit Skin; abraded skin) [µg/day] | Daily Delivery Rate (Rabbit Skin; intact skin) [µg/day] | relationship between daily delivery rate and dosage [2] | Daily Delivery Rate ([2]; Group A: 1 × 10 cm^2 patch/week) [µg/day] | Daily Delivery Rate ([2]; Group B: 2 × 10 cm^2 patch/week) [µg/day] | Daily Delivery Rate ([2]; Group C: 3 × 10 cm^2 patch/week) [µg/day] | serum concentration of levonorgestrel versus target concentration [3]
1 | C[C@]12CC[C@@H]3c4ccc(O)cc4CC[C@H]3[C@@H]1CC[C@@H]2O [17-beta-estradiol] | ~28.8 µg/day | higher than skin permeation rate obtained in the in vitro study | 35.1 ± 26.70 | 37.0 ± 19.77 | established only for the dosages of the first and second pieces of 10 cm^2 TCDS patches | 42.1 ± 16.32 | 89.7 ± 28.4 | 110.4 ± 28.61 | –
2 | C#C[C@]1(O)CC[C@H]2[C@@H]3CCC4=CC(=O)CC[C@@H]4[C@H]3CC[C@@]21CC [Levonorgestrel, levonorgestrel] | about 60.0±9.42 μg/day | seems to correlate very well with the in vitro delivery rate | – | – | linearly proportional to the increase in dosage of TCDS patches | – | – | – | above the target concentration throughout the three weeks of patch application

Reference: patent publication US5762956A, “Transdermal contraceptive delivery system and process” (priority 1996, dated 1998)
